Reference: patent US9980973B2, “Bicyclic heterocycle compounds and their uses in therapy” (ASTEX THERAPEUTICS LIMITED, priority 2012, dated 2018)
Counter-ions that a name gives are not always drawn. Like-named read-outs stand apart in the source and are kept apart here.

How the values were obtained:
[1] = target: T1, BIR3 domain of human cIAP-1 (Homo sapiens, UniProt Q13490); assay: cIAP-1 in vitro competitive displacement binding assay (fluorescence polarization); conditions: PI at […]
T1 construct: human cIAP-1 (residues 267-363) fused to a GST-tag; GST-tag (cleaved yes); made in house; host or cells: Escherichia coli
T1 sequence (Q13490 267-363): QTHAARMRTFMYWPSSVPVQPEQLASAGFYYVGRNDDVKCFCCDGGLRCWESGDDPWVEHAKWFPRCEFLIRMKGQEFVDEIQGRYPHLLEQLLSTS

[2] = target: T2, BIR3 domain of human XIAP (Homo sapiens, UniProt P98170); assay: XIAP in vitro competitive displacement binding assay (fluorescence polarization); conditions: for Xiap IC50 or PI μM (PI) / inhibition at 0.04 µM: PI at 0.04 μM; for inhibition at 0.04 µM: 1 h, read-out: Xiap IC50 or PI μM (PI)
T2 construct: BIR3 domain of human XIAP (residues 252-350) fused to a His-tag; His-tag (cleaved yes); made in house; host or cells: Escherichia coli
T2 sequence (P98170 252-350): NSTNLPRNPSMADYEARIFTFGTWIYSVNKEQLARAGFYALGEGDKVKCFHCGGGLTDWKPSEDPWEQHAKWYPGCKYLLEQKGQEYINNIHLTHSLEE

[3] = tested on: EVSA-T (human breast carcinoma); assay: Anti-proliferative activity, Alamar Blue assay, EVSA-T; format: cell-based
[4] = 60 min, dihydrochloride, 0.04 µM
[5] = EVSA-T cells, 72 hours, Alamar Blue, dihydrochloride, read-out: EVSA-T prolif
[6] = plain number = IC50, average where more than one data point, read-out: Xiap IC50 or PI μM (IC50)
[7] = EVSA-T cells, 72 hours, Alamar Blue, hydrochloride, read-out: EVSA-T prolif
[8] = EVSA-T cells, 72 hours, Alamar Blue, read-out: EVSA-T prolif
[9] = Homo sapiens, EVSA-T, 72 h, EVSA-T cells, 72 hours, Alamar Blue, read-out: EVSA-T prolif
[10] = Homo sapiens, EVSA-T, read-out: EC50 in EVSA-T cell line assays

C[C@@H]1CN(CC(=O)N2CC(C)(C)c3ncc(C(O)c4cccc(F)c4)cc32)[C@@H](CN2[C@H](C)COC[C@H]2C)CN1 (single isomer, unassigned) [Example 106, 2-[(2R,5R)-2-{[(3R,5R)-3,5-Dimethylmorpholin-4-yl]methyl}-5-methylpiperazin-1-yl]-1-{6-[(R or S)-(3-fluorophenyl)-(hydroxy)methyl]-3,3-dimethyl-1H,2H,3H-pyrrolo[3,2-b]pyridin-1-yl}ethan-1-one dihydrochloride]
cIAP1 IC50 or PI μM (PI) ([1]; 180 min, dihydrochloride, […]): 88%@0.012 | Xiap IC50 or PI μM (PI) [2, 4]: 42%@0.04 | EC50 [3, 5]: 4.3 nM

C[C@@H]1CN(CC(=O)N2CC(C)(C)c3ncc(Cc4ccc(F)cc4)cc32)[C@@H](CN2CCOCC2C(F)(F)F)CN1 (single isomer, unassigned) [Example 27, 1-{6-[(4-Fluorophenyl)methyl]-3,3-dimethyl-1H,2H,3H-pyrrolo[3,2-b]pyridin-1-yl}-2-[(2R,5R)-5-methyl-2-{[3-([R or S]trifluoromethyl)morpholin-4-yl]methyl}piperazin-1-yl]ethan-1-one hydrochloride]
cIAP1 IC50 or PI μM (PI) ([1]; 180 min, hydrochloride, […]): 90%@0.012 | IC50 [2, 6]: 0.13 µM | EC50 [3, 7]: 15 nM

C[C@@H]1CN(CC(=O)N2CC(C)(C)c3ncc(Cc4ccc(F)cc4)cc32)[C@@H](CN2CCCCC2C(F)(F)F)CN1 (single isomer, unassigned) [Example 26, 1-{6-[(4-Fluorophenyl)methyl]-3,3-dimethyl-1H,2H,3H-pyrrolo[3,2-b]pyridin-1-yl}-2-[(2R,5R)-5-methyl-2-{[2-([R or S]trifluoromethyl)piperidin-1-yl]methyl}piperazin-1-yl]ethan-1-one hydrochloride]
cIAP1 IC50 or PI μM (PI) ([1]; 180 min, hydrochloride, […]): 94%@0.012 | IC50 [2, 6]: 0.21 µM | EC50 [3, 7]: 120 nM

C[C@@H]1CN(CC(=O)N2CC(C)(C)c3ncc(C(O)c4cccc(F)c4F)cc32)[C@@H](CN2[C@H](C)COC[C@H]2C)CN1 (single isomer, unassigned) [Example 112, (R or S)-1-{6-[(2,3-Difluorophenyl)(hydroxy)meth-yl]-3,3-dimethyl-1H,2H,3H-pyrrolo[3,2-b]pyridin-1-yl}-2-[(2R,5R)-2-{[(3R,5R)-3,5-dimethylmorpholin-4-yl]methyl}-5-methylpiperazin-1-yl]ethan-1-one dihdrochloride]
cIAP1 IC50 or PI μM (PI) ([1]; 180 min, […]): 90%@0.012 | Xiap IC50 or PI μM (PI) ([2]; 60 min, 0.04 µM): 47%@0.04 | EC50 [3, 8]: 20 nM

C[C@@H]1CN(CC(=O)N2CC(C)(C)c3cnc(Cc4ccc(F)cc4)cc32)[C@@H](CN2CCOC[C@]2(C)CO)CN1.Cl.Cl [Example 61, 1-{6-[(4-Fluorophenyl)methyl]-3,3-dimethyl-1H,2H,3H-pyrrolo[3,2-c]pyridin-1-yl}-2-[(2R,5R)-2-{[(3S)-3-(hydroxymethyl)-3-methylmorpholin-4-yl]methyl}-5-methylpiperazin-1-yl]ethan-1-one, dihydrochloride]
cIAP1 IC50 or PI μM (PI) [1]: 99%@0.012 | Xiap IC50 or PI μM (PI) [2]: 57%@0.04 | EC50 [3, 8]: 6 nM

C[C@@H]1CN(CC(=O)N2CC(C)(C)c3cc(C#N)c(Cc4ccc(F)cc4)cc32)[C@@H](CN2[C@H](C)COC[C@H]2C)CN1 [Example 92, 1-{2-[(2R,5R)-2-{[(3R,5R)-3,5-Dimethylmorpholin-4-yl]methyl}-5-methylpiperazin-1-yl]acetyl}-6-[(4-fluroophenyl)methyl]-3,3-dimethyl-2,3-dihydro-1H-indole-5-carbonitrile dihydrochloride]
inhibition at 0.04 µM [2]: 54% | EC50 [3, 9]: 2.7 nM | EC50 [3, 10]: < 1000 nM

C[C@@H]1CN(CC(=O)N2CC(C)(C)c3ncc(Cc4ccc(F)cc4F)cc32)[C@@H](CN2CCOC[C@]2(C)CO)CN1 [Example 57, 1-{6-[(2,4-Difluorophenyl)methyl]-3,3-dimethyl-1H,2H,3H-pyrrolo[3,2-b]pyridin-1-yl}-2-[(2R,5R)-2-{[(3S)-3-(hydroxymethyl)-3-methylmorpholin-4-yl]methyl}-5-methylpiperazin-1-yl]ethan-1-one, dihydrochloride]
inhibition at 0.04 µM [2]: 41% | EC50 [3, 9]: 2.6 nM | EC50 [3, 10]: < 1000 nM

C[C@@H]1CN(CC(=O)N2CC(C)(C)c3ccc(Cc4ccc(F)cc4)cc32)[C@@H](CN2[C@H](C)COC[C@H]2C)CN1 [Example 49, 2-[(2R,5R)-2-{[(3R,5R)-3,5-Dimethylmorpholin-4-yl]methyl}-5-methylpiperazin-1-yl]-1-{6-[(4-fluorophenyl)methyl]-3,3-dimethyl-2,3-dihydro-1H-indol-1-yl]ethan-1-one, dihydrochloride]
inhibition at 0.04 µM [2]: 44% | EC50 [3, 9]: 1.1 nM | EC50 [3, 10]: < 1000 nM

C[C@@H]1CN(CC(=O)N2CC(C)(C)c3ncc(Cc4ccc(F)cc4)cc32)[C@@H](CN2CCCCC2C(F)(F)F)CN1 (single isomer, unassigned) [Example 24, 1-{6-[(4-Fluorophenyl)methyl]-3,3-dimethyl-1H,2H,3H-pyrrolo[3,2-b]pyridin-1-yl}-2-[(2R,5R)-5-methyl-2-{[2-([R or S]trifluoromethyl)piperidin-1-yl]methyl}piperazin-1-yl]ethan-1-one hydrochloride]
IC50 [2, 6]: 0.13 µM | EC50 [3, 7]: 13 nM | EC50 [3, 10]: < 1000 nM

C[C@@H]1CN(CC(=O)N2CC(C)(C)c3cnc(Cc4ccc(F)cc4)cc32)[C@@H](CN2[C@H](C)COC[C@H]2C)CN1 [Example 55, 2-[(2R,5R)-2-{[(3R,5R)-3,5-Dimethylmorpholin-4-yl]methyl}-5-methylpiperazin-1-yl]-1-{6-[(4-fluorophenyl)methyl]-3,3-dimethyl-1H,2H,3H-pyrrolo[3,2-c]pyridin-1-yl}ethan-1-one, dihydrochloride]
inhibition at 0.04 µM [2]: 59% | EC50 [3, 9]: 0.23 nM | EC50 [3, 10]: < 1000 nM

C[C@@H]1CN(CC(=O)N2CC(C)(C)c3ncc(C(O)c4ccccc4F)cc32)[C@@H](CN2[C@H](C)COC[C@H]2C)CN1 (single isomer, unassigned) [Example 108, 2-[(2R,5R)-2-{[(3R,5R)-3,5-Dimethylmorpholin-4-yl]methyl}-5-methylpiperazin-1-yl]-1-{6-[(R or S)-(2-fluorophenyl)-(hydroxy)methyl]-3,3-dimethyl-1H,2H,3H-pyrrolo[3,2-b]pyridin-1-yl}ethan-1-one dihydrochloride]
cIAP1 IC50 or PI μM (PI) ([1]; 180 min, dihydrochloride, […]): 97%@0.012 | Xiap IC50 or PI μM (PI) [2, 4]: 66%@0.04 | EC50 [3, 5]: 2.7 nM

COCC1(C)COCCN1C[C@H]1CN[C@H](C)CN1CC(=O)N1CC(C)(C)c2ncc(Cc3ccc(F)cc3)cc21 (single isomer, unassigned) [Example 100, dihydrochloride]
cIAP1 IC50 or PI μM (PI) ([1]; 180 min, dihydrochloride, […]): 99%@0.012 | inhibition at 0.04 µM [2]: 56% | IC50 ([2]; or at least 50% inhibition of the activity at 0.1 μM, read-out: IC50 in the XIAP assay): < 0.1 µM | EC50 [3, 5]: 0.92 nM | EC50 [3, 10]: < 1000 nM
